Measured values reported in US20100333217A1, “SCREENING METHOD FOR THE COMPOSITION FOR PREVENTION OR TREATMENT OF OSTEOPOROSIS AND METABOLIC BONE DISEASE USING TALLYHO/JNGJ MOUSE” (KOREA RESERACH INSTITUTE OF CHEMICAL TECHNOLOGY, priority 2007, published 2010).

Tests used:
[1] = system: male TH mice; assay: Micro-CT bone mineral density, bone mineral content and skull thickness in drug-treated male TH mice; format: in vivo, mouse
Procedure: Control mice (C57BL/6) and TH mice were freely fed, and their bone mineral densities were measured every week from 4 week age to 20 week age after delectation. The mice were anesthetized with Avertin (2,2,2-tribromoethanol) to keep them alive while measuring their bone mineral densities. […] Thereafter, the resulting images were reformed using Microview (GE Healthcare, USA) to obtain the final bone mineral density (BMD) and the final bone mineral content (BMC) (see FIG. 2).
Control mice (C57BL/6) and TH mice were fed freely. […] Thereafter, the bone thicknesses and the bone mineral densities of the extracted skulls were measured as described in Example 2, using a tomographic apparatus (micro-CT) for animals.
8-week-old male TH mice were orally administered with parathyroid hormone (hPTH(1-34), Sigma, USA), which is started to be used as an osteoporosis medicine increasing the bone mineral content, with a concentration of 50 μg/kg, once a day for 4 weeks.

[2] = system: RANKL; conditions: cells separated from bone marrow of treated TH mice and cultured, RT-PCR; vs vehicle (FIG. 21)
Procedure: (§1) After separating mRNA from the cell of FIG. 4, the expression levels of the genes related to the differentiation of osteoblast and osteoclast and cytokines were analyzed. The total RNA was obtained from the Extraction Kit (Intron, Seongnam, Korea) according to the manufacturer's protocol. The separated RNA was weighed by measuring the absorbance. The reverse transcription PCR (RT-PCR) was performed using primers listed in Table 1 under the following conditions to examine the expression level of each of the genes.
(§2) Reverse Transcription System (Promega, USA) was added with total RNA 1 μg, 10 mM dNTP 2 μl, 100 pmole Oligo dT 1 μl, 10×buffer 2 μl, 25 mM MgCl2 4 μl, RNase inhibitor 0.2 μl, AMV RTase 0.2 μl, and DEPC-treated water, and cultured at 42° C. for 60 minutes and at 72° C. for 10 minutes to prepare cDNA. Then, the reverse transcripted cDNA sample was amplified using primer pairs specific to respective target genes. The PCR was repeated 25-30 times after denaturation at 95° C. for 5 minutes. In specific, the PCR was performed under the condition of denaturation at 95° C. for 30 seconds, primer annealing at 55° C. (NPY1receptor), 56° C.
(§3) Thereafter, the bone mineral density and the bone mineral content of the femur and the thickness and the bone mineral density of the skull were measured as described in Examples 2 and 3.

[3] = system: OPG; conditions: cells separated from bone marrow of treated TH mice and cultured, RT-PCR; vs vehicle (FIG. 21)
Procedure: as §1, §2, §3

[4] = system: IL-6; conditions: male TH mice, oral 5 mg/kg once a day for 4 weeks; ELISA (FIG. 20)
Procedure: as §3
Meanwhile, after separating the blood serum, IL-6 level was measured using ELISA Kit (ALPCO diagnostics, USA).

[5] = system: male TH mice; conditions: oral 5 mg/kg once a day for 4 weeks, femur of 8-week-old mouse, micro-CT (FIG. 19)
Procedure: Thereafter, the bone mineral density and the bone mineral content of the femur and the thickness and the bone mineral density of the skull were measured as described in Examples 2 and 3. […] The TH mice and B6 mice were sacrificed with carbon dioxide. The femurs thereof were extracted and scanned 400 times with a thickness of […] using eXplore Locus micro-CT (GE Healthcare, USA) which is devised as a tomographic apparatus for small animals. The scanned images were accurately reformed using Microview (GE Healthcare, USA) to obtain final histomorphological images of the femurs.

Molecule | bone mineral densities ([1]; 8-week-old male TH mice, 50 μg/kg once a day for 4 weeks, orally administered (so in the source), femur, vs 12-week-old TH mice treated with vehicle only (FIG. 22)) | bone mineral contents ([1]; 8-week-old male TH mice, 50 μg/kg once a day for 4 weeks, orally administered (so in the source), femur, vs 12-week-old TH mice treated with vehicle only (FIG. 23)) | RANKL gene expression [2] | OPG gene expression [3] | bone mineral contents in the femurs ([1]; 4-week-old male TH mice, oral 5 mg/kg once a day for 4 weeks, vs 8-week-old TH mice treated with vehicle only (FIG. 16)) | thicknesses of the skulls ([1]; 4-week-old male TH mice, oral 5 mg/kg once a day for 4 weeks, vs TH mice vehicle (FIG. 17)) | IL-6 level in blood serum [4] | histomorphological images of the femurs (recovering the bone loss) [5]
parathyroid hormone (hPTH(1-34) (SVSEIQLMHNLGKHLNSMERVEWLRKKLQDVHNF; Parathyroid hormone; UniProt P01270 32-65, looked up, fragment) [parathyroid hormone hPTH(1-34), Sigma; osteoporosis medicine increasing the bone mineral content] | significantly recovered | significantly recovered | – | – | – | – | – | –
NCCCC(O)(P(=O)(O)O)P(=O)(O)O [alendronate] | – | – | decreased | increased | significantly recovered | significantly recovered | low IL-6 level | filled with trabeculars
